Key:
[1] = tested on: Fusobacterium nucleatum subsp. Nucleatum; assay: IC25 growth inhibition; higher = less potent
Method in brief: (§1)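 Under anaerobic conditions, OD578 was read hourly in a plate reader for at least three biological replicates of monocultures grown overnight in mGAM. Each culture started at an OD578 of 0.01 in pre-reduced plates holding twofold drug dilutions and 1% DMSO (or water). IC25 was reported as a tested interval: the lowest concentration where the monotonic median area under the growth curve dropped below the cutoff. That cutoff was 0.75.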

Escherichia coli ED1a = assay: IC25 growth inhibition; higher = less potent
Method in brief: as §1

Roseburia intestinalis = assay: IC25 growth inhibition; higher = less potent
Method in brief: as §1

[2] = tested on: Salmonella enterica typhimurium; assay: IC25 growth inhibition; higher = less potent
Method in brief: as §1

[3] = tested on: Streptococcus parasanguinis; assay: IC25 growth inhibition; higher = less potent
Method in brief: as §1

Clostridium ramosum = assay: IC25 growth inhibition; higher = less potent
Method in brief: as §1

Bacteroides fragilis NT = assay: IC25 growth inhibition; higher = less potent
Method in brief: as §1

[4] = tested on: Yersinia pseudotuberculosis; assay: IC25 growth inhibition; higher = less potent
Method in brief: as §1

Eubacterium rectale = assay: IC25 growth inhibition; higher = less potent
Method in brief: as §1

[5] = tested on: Clostridium saccharolyticum; assay: IC25 growth inhibition; higher = less potent
Method in brief: as §1

Ruminococcus gnavus = assay: IC25 growth inhibition; higher = less potent
Method in brief: as §1

Clostridium bolteae = assay: IC25 growth inhibition; higher = less potent
Method in brief: as §1

Bacteroides uniformis = assay: IC25 growth inhibition; higher = less potent
Method in brief: as §1

Clostridium perfringens = assay: IC25 growth inhibition; higher = less potent
Method in brief: as §1

Collinsella aerofaciens = assay: IC25 growth inhibition; higher = less potent
Method in brief: as §1

Streptococcus salivarius = assay: IC25 growth inhibition; higher = less potent
Method in brief: as §1

[6] = tested on: Yersinia enterocolitica WA-314; assay: IC25 growth inhibition; higher = less potent
Method in brief: as §1

Parabacteroides merdae = assay: IC25 growth inhibition; higher = less potent
Method in brief: as §1

Vibrio cholerae = assay: IC25 growth inhibition; higher = less potent
Method in brief: as §1

Dorea formicigenerans = assay: IC25 growth inhibition; higher = less potent
Method in brief: as §1

Bacteroides vulgatus = assay: IC25 growth inhibition; higher = less potent
Method in brief: as §1

Coprococcus comes = assay: IC25 growth inhibition; higher = less potent
Method in brief: as §1

[7] = tested on: Bacteroides thetaiotaomicron; assay: IC25 growth inhibition; higher = less potent
Method in brief: as §1

Shigella flexneri = assay: IC25 growth inhibition; higher = less potent
Method in brief: as §1

[8] = tested on: Com21 synthetic gut community; assay: community biomass OD578 after 24 h drug treatment relative to untreated (fraction of untreated control); higher = more community growth; details: community: Com21 (Com20 + E. coli ED1a)
Description: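 Com21 (Com20 plus E. coli ED1a) was treated with drug for 24 h under anaerobic conditions in mGAM. Community OD578 was then measured and normalised to untreated Com21; mean of 3 biological replicates.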

[9] = drug pretreatment concentration 10 µM
[10] = drug pretreatment concentration 20 µM
[11] = drug pretreatment concentration 40 µM
[12] = drug pretreatment concentration 80 µM
[13] = drug pretreatment concentration 160 µM
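Throughout, for IC25 growth inhibition: lowest concentration where monotonic median growth AUC falls below 0.75 of drug-free control.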

Which IC25 growth inhibition [1] does the source give for `CN(C)CCCN1c2ccccc2Sc2ccc(Cl)cc21` [Chlorpromazine] here?
The IC25 growth inhibition was ≤ 80 µM.

And the IC25 growth inhibition (Escherichia coli ED1a)?
Its IC25 growth inhibition is ≤ 160 µM.

What about the IC25 growth inhibition (Roseburia intestinalis) of the same compound?
The IC25 growth inhibition was ≤ 80 µM.

What about the IC25 growth inhibition [2] of the same compound?
Its IC25 growth inhibition is > 160 µM.

And the IC25 growth inhibition [3]?
Its IC25 growth inhibition is ≤ 160 µM.

What about the IC25 growth inhibition (Clostridium ramosum) of the same compound?
Its IC25 growth inhibition is > 160 µM.

What about the IC25 growth inhibition (Bacteroides fragilis NT) of the same compound?
The IC25 growth inhibition was ≤ 80 µM.

And the IC25 growth inhibition [4]?
Its IC25 growth inhibition is ≤ 160 µM.

What about the IC25 growth inhibition (Eubacterium rectale) of the same compound?
The IC25 growth inhibition was ≤ 40 µM.

What about the IC25 growth inhibition [5] of the same compound?
Its IC25 growth inhibition is ≤ 80 µM.

What about the IC25 growth inhibition (Ruminococcus gnavus) of the same compound?
Its IC25 growth inhibition is ≤ 40 µM.

And the IC25 growth inhibition (Clostridium bolteae)?
Its IC25 growth inhibition is ≤ 160 µM.

And the IC25 growth inhibition (Bacteroides uniformis)?
The IC25 growth inhibition was ≤ 80 µM.

And the IC25 growth inhibition (Clostridium perfringens)?
The IC25 growth inhibition was ≤ 80 µM.

What about the IC25 growth inhibition (Collinsella aerofaciens) of the same compound?
Its IC25 growth inhibition is ≤ 160 µM.

What about the IC25 growth inhibition (Streptococcus salivarius) of the same compound?
Its IC25 growth inhibition is ≤ 80 µM.

What about the IC25 growth inhibition [6] of the same compound?
Its IC25 growth inhibition is > 160 µM.

What about the IC25 growth inhibition (Parabacteroides merdae) of the same compound?
Its IC25 growth inhibition is ≤ 40 µM.

What about the IC25 growth inhibition (Vibrio cholerae) of the same compound?
Its IC25 growth inhibition is ≤ 160 µM.

What about the IC25 growth inhibition (Dorea formicigenerans) of the same compound?
Its IC25 growth inhibition is ≤ 40 µM.

And the IC25 growth inhibition (Bacteroides vulgatus)?
The IC25 growth inhibition was ≤ 40 µM.

And the IC25 growth inhibition (Coprococcus comes)?
The IC25 growth inhibition was ≤ 160 µM.

What about the IC25 growth inhibition [7] of the same compound?
Its IC25 growth inhibition is ≤ 80 µM.

And the IC25 growth inhibition (Shigella flexneri)?
Its IC25 growth inhibition is ≤ 160 µM.

What about the “community biomass OD578” value [8, 9] of the same compound?
The value was 1.

What about the “community biomass OD578” value [8, 10] of the same compound?
The value was 0.983.

What about the “community biomass OD578” value [8, 11] of the same compound?
The value was 0.941.

And the “community biomass OD578” value [8, 12]?
The value was 0.927.

And the “community biomass OD578” value [8, 13]?
Its value is 0.813.

Which results are given for `CN(C)CC/C=C1/c2ccccc2Sc2ccc(Cl)cc21` [Chlorprothixene]?
IC25 growth inhibition [1]: ≤ 80 µM; IC25 growth inhibition (Escherichia coli ED1a): > 160 µM; IC25 growth inhibition (Roseburia intestinalis): ≤ 40 µM; IC25 growth inhibition [2]: > 160 µM; IC25 growth inhibition [3]: > 160 µM; IC25 growth inhibition (Clostridium ramosum): > 160 µM; IC25 growth inhibition (Bacteroides fragilis NT): ≤ 80 µM; IC25 growth inhibition [4]: ≤ 160 µM; IC25 growth inhibition (Eubacterium rectale): ≤ 80 µM; IC25 growth inhibition [5]: ≤ 80 µM; IC25 growth inhibition (Ruminococcus gnavus): ≤ 160 µM; IC25 growth inhibition (Clostridium bolteae): ≤ 160 µM; IC25 growth inhibition (Bacteroides uniformis): ≤ 40 µM; IC25 growth inhibition (Clostridium perfringens): ≤ 80 µM; IC25 growth inhibition (Collinsella aerofaciens): ≤ 160 µM; IC25 growth inhibition (Streptococcus salivarius): ≤ 160 µM; IC25 growth inhibition [6]: > 160 µM; IC25 growth inhibition (Parabacteroides merdae): ≤ 160 µM; IC25 growth inhibition (Vibrio cholerae): ≤ 20 µM; IC25 growth inhibition (Dorea formicigenerans): ≤ 40 µM; IC25 growth inhibition (Bacteroides vulgatus): ≤ 40 µM; IC25 growth inhibition (Coprococcus comes): ≤ 160 µM; IC25 growth inhibition [7]: ≤ 40 µM; IC25 growth inhibition (Shigella flexneri): ≤ 160 µM; community biomass OD578 [8, 9]: 0.988; community biomass OD578 [8, 10]: 1.02; community biomass OD578 [8, 11]: 0.99; community biomass OD578 [8, 12]: 0.965; community biomass OD578 [8, 13]: 0.48

How did the IC25 growth inhibition [1] turn out when `COCCOC(=O)C1=C(C)NC(C)=C(C(=O)OC/C=C/c2ccccc2)C1c1cccc([N+](=O)[O-])c1` (stereo unspecified) [Cilnidipine] was run?
The IC25 growth inhibition was > 10 µM.

And the IC25 growth inhibition (Escherichia coli ED1a)?
Its IC25 growth inhibition is > 40 µM.

And the IC25 growth inhibition (Roseburia intestinalis)?
Its IC25 growth inhibition is > 10 µM.

And the IC25 growth inhibition [2]?
The IC25 growth inhibition was > 5 µM.

What about the IC25 growth inhibition [3] of the same compound?
The IC25 growth inhibition was > 20 µM.

And the IC25 growth inhibition (Clostridium ramosum)?
The IC25 growth inhibition was > 5 µM.

And the IC25 growth inhibition (Bacteroides fragilis NT)?
Its IC25 growth inhibition is > 10 µM.

What about the IC25 growth inhibition [4] of the same compound?
Its IC25 growth inhibition is > 10 µM.

What about the IC25 growth inhibition (Eubacterium rectale) of the same compound?
The IC25 growth inhibition was > 10 µM.

And the IC25 growth inhibition [5]?
The IC25 growth inhibition was > 10 µM.

And the IC25 growth inhibition (Ruminococcus gnavus)?
The IC25 growth inhibition was > 20 µM.

What about the IC25 growth inhibition (Clostridium bolteae) of the same compound?
The IC25 growth inhibition was > 10 µM.

And the IC25 growth inhibition (Bacteroides uniformis)?
The IC25 growth inhibition was > 40 µM.

What about the IC25 growth inhibition (Clostridium perfringens) of the same compound?
The IC25 growth inhibition was > 20 µM.

What about the IC25 growth inhibition (Collinsella aerofaciens) of the same compound?
The IC25 growth inhibition was > 10 µM.

And the IC25 growth inhibition (Streptococcus salivarius)?
The IC25 growth inhibition was > 10 µM.

And the IC25 growth inhibition [6]?
The IC25 growth inhibition was > 5 µM.

And the IC25 growth inhibition (Parabacteroides merdae)?
The IC25 growth inhibition was > 20 µM.

What about the IC25 growth inhibition (Vibrio cholerae) of the same compound?
Its IC25 growth inhibition is > 10 µM.

What about the IC25 growth inhibition (Dorea formicigenerans) of the same compound?
The IC25 growth inhibition was > 10 µM.

And the IC25 growth inhibition (Bacteroides vulgatus)?
Its IC25 growth inhibition is > 10 µM.

And the IC25 growth inhibition (Coprococcus comes)?
The IC25 growth inhibition was > 10 µM.

What about the IC25 growth inhibition [7] of the same compound?
The IC25 growth inhibition was > 10 µM.

What about the IC25 growth inhibition (Shigella flexneri) of the same compound?
Its IC25 growth inhibition is > 10 µM.

What about the “community biomass OD578” value ([8]; drug pretreatment concentration 2.5 µM) of the same compound?
Its value is 1.03.

What about the “community biomass OD578” value ([8]; drug pretreatment concentration 5 µM) of the same compound?
The value was 1.

What about the “community biomass OD578” value [8, 9] of the same compound?
The value was 1.06.

What about the “community biomass OD578” value [8, 10] of the same compound?
Its value is 1.03.

What about the “community biomass OD578” value [8, 11] of the same compound?
Its value is 0.993.

With `Clc1ccc(Cn2c(CN3CCCC3)nc3ccccc32)cc1` [Clemizole] as the compound, how does the IC25 growth inhibition [1] read?
Its IC25 growth inhibition is ≤ 160 µM.

And the IC25 growth inhibition (Escherichia coli ED1a)?
The IC25 growth inhibition was > 160 µM.

And the IC25 growth inhibition (Roseburia intestinalis)?
Its IC25 growth inhibition is ≤ 5 µM.

What about the IC25 growth inhibition [2] of the same compound?
Its IC25 growth inhibition is > 160 µM.

What about the IC25 growth inhibition [3] of the same compound?
Its IC25 growth inhibition is > 160 µM.

What about the IC25 growth inhibition (Clostridium ramosum) of the same compound?
Its IC25 growth inhibition is ≤ 10 µM.

And the IC25 growth inhibition (Bacteroides fragilis NT)?
The IC25 growth inhibition was > 160 µM.

And the IC25 growth inhibition [4]?
The IC25 growth inhibition was > 160 µM.

And the IC25 growth inhibition (Eubacterium rectale)?
Its IC25 growth inhibition is ≤ 2.5 µM.

What about the IC25 growth inhibition [5] of the same compound?
The IC25 growth inhibition was ≤ 80 µM.

And the IC25 growth inhibition (Ruminococcus gnavus)?
The IC25 growth inhibition was ≤ 10 µM.

What about the IC25 growth inhibition (Clostridium bolteae) of the same compound?
Its IC25 growth inhibition is > 160 µM.

What about the IC25 growth inhibition (Bacteroides uniformis) of the same compound?
The IC25 growth inhibition was > 160 µM.

What about the IC25 growth inhibition (Clostridium perfringens) of the same compound?
Its IC25 growth inhibition is ≤ 160 µM.

What about the IC25 growth inhibition (Collinsella aerofaciens) of the same compound?
The IC25 growth inhibition was ≤ 20 µM.

What about the IC25 growth inhibition (Streptococcus salivarius) of the same compound?
The IC25 growth inhibition was > 160 µM.

And the IC25 growth inhibition [6]?
Its IC25 growth inhibition is > 160 µM.

And the IC25 growth inhibition (Parabacteroides merdae)?
Its IC25 growth inhibition is ≤ 160 µM.

And the IC25 growth inhibition (Vibrio cholerae)?
Its IC25 growth inhibition is ≤ 80 µM.

What about the IC25 growth inhibition (Dorea formicigenerans) of the same compound?
The IC25 growth inhibition was ≤ 2.5 µM.

And the IC25 growth inhibition (Bacteroides vulgatus)?
Its IC25 growth inhibition is ≤ 160 µM.

And the IC25 growth inhibition (Coprococcus comes)?
The IC25 growth inhibition was ≤ 2.5 µM.

What about the IC25 growth inhibition [7] of the same compound?
Its IC25 growth inhibition is ≤ 160 µM.

And the IC25 growth inhibition (Shigella flexneri)?
The IC25 growth inhibition was > 160 µM.

And the “community biomass OD578” value [8, 9]?
Its value is 1.01.

What about the “community biomass OD578” value [8, 10] of the same compound?
The value was 1.

And the “community biomass OD578” value [8, 11]?
The value was 1.03.

And the “community biomass OD578” value [8, 12]?
The value was 1.02.

And the “community biomass OD578” value [8, 13]?
The value was 0.964.
